Assay results from US8334403B1, “C-lysine conjugates as pH-controlled, light-activated reagents for double stranded DNA cleavage and associated methods” (Florida State University Research Foundation, Inc., priority 2005, dated 2012).
Like-named read-outs stand apart in the source and are kept apart here. Marks after values point to notes of the source that are not given here.

Key:
[1] = published literature; cited from earlier work
[2] = Fluorometric (emission) determination of pKa; assay type: physicochemical; settings: emission; α-amino group (4, 6), ε-amino group (7)
Method: (§1) General information. ^1H, ^13C and ^19F NMR were collected on a Varian Gemini 300 MHz NMR spectrometer and a Bruker 300 MHz NMR spectrometer. Mass spectrometry data was collected on a Jeol JMS-600H. UV spectra were recorded on a Shimadzu UV-2100. Fluorescence spectra were obtained with SPEX FluoMax spectrofluorimeter using right-angle geometry. pH was adjusted with AB 15 plus pH meter (Accument) after standardization at 25° C. All buffers were prepared and pH-adjusted at room temperature (25° C.). Plasmid DNA Photocleavage. pBR322 plasmid DNA (4,361 b/p; from BioLabs Inc., 1 μg/μL solution in 10 mM Tris-HCl (pH 8.0), and 1 mM EDTA buffer) was diluted to a concentration of 0.01 μg/μL. The solution containing cleavage agent, DNA (30 μM/bp) in 20 mM sodium phosphate buffer was incubated for 1 hour at 30° C. Samples were placed on ice at a distance of 20 cm from 200 W Hg—Xe lamp (Spectra-Physics, Laser & Photonics Oriel Instruments with long pass filter with 324 nm cut-off wavelength). Electrophoretic Analysis. The gel electrophoresis was carried out in 1×TBE buffer at 80 V using Miligel FisherBiotech Horizontal Electrophoresis System. All gels were run on 1% agarose slab gels. Before loading, the DNA samples were mixed with 0.33 volume of tracking dye containing bromophenol blue (0.25%) and glycerol (30%) in water. After staining in ethidium bromide solution (2 μg/ml) for 1 hour, the gel was washed with water and pictures were taken with Polaroid 3000ISO type 667 film. The relative quantities of the supercoiled, nicked, and linear DNA were calculated by integrating the “area” of each spot by the image analyzer software Total/Lab (Nonlinear Dynamics Ltd., UK). The amount of supercoiled DNA was multiplied by factor of 1.4 to account for reduced ethidium bromide intercalation into supercoiled DNA. pH titration by ^1H-NMR. pH* of compound 8 (3 mM) solution in D2O containing 0.05 wt % 3-(trimethylsilyl)propionic-2,2,3,3-d4 acid, sodium salt (TSP-d4) was adjusted with 10 wt % DCI and NaOD in D2O at 25° C. under argon purged condition. Spectrometric determinations of pKa. pH of 10 μM of compound solution in H2O was adjusted with 10, 100 mM HCl (aq) and NaOH (aq) solution under argon purged condition. Excitation wavelength was 330 nm and polymethacrylate fluorimeter cuvettes were used. Absorbance and fluorescence titration with DNA. The concentrations of calf thymus DNA stock solution was determined spectophotometrically using the following molar absorptovity values: 1.32×10^4 M^−1 cm^−1 (per base pair) at 260 nm. All experiments were done in 20 mM sodium phosphate buffer at 25° C. and polymethacrylate fluorimeter cuvettes were used. The same amount of DNA was added to both sample and reference cuvettes during UV/Vis titration. Determination of excited state lifetimes. The concentration of compound solution was 10 μM in 20 mM sodium phosphate buffer. The photoluminescence lifetime measurements were conducted by exciting the samples with the output of a Nd:VO—4 (Spectra-Physics Vanguard, 2 W, 532 nm, 76 MHz, 10 ps) pumped R6G dye laser (Coherent 702-1). The output of the dye laser (600 nm, Rhodamine 6G) was cavity dumped at 1.9 MHz and frequency doubled using a BBO crystal to excite the fluorophore (the excitation wavelength used was 290 nm). Samples were excited with <1 mW power and the emission was collected at right angles onto a Chromex S3 500 is 0.5 m imaging monochromator with a 50 g/mm grating and 0.5 nm resolution. […]

[3] = UV-absorption titration determination of pKa; assay type: physicochemical; settings: for pKa1: absorption, α-amino group (4, 6), ε-amino group (7)
Method: as §1

pBR322 plasmid DNA = test: Plasmid relaxation assay: DNA photocleavage of supercoiled plasmid under UV irradiation; assay type: biochemical; settings: pH 6, 15 μM, 10 min of UV irradiation
Method: General information. ^1H, ^13C and ^19F NMR were collected on a Varian Gemini 300 MHz NMR spectrometer and a Bruker 300 MHz NMR spectrometer. Mass spectrometry data was collected on a Jeol JMS-600H. UV spectra were recorded on a Shimadzu UV-2100. Fluorescence spectra were obtained with SPEX FluoMax spectrofluorimeter using right-angle geometry. pH was adjusted with AB 15 plus pH meter (Accument) after standardization at 25° C. All buffers were prepared and pH-adjusted at room temperature (25° C.). Plasmid DNA Photocleavage. pBR322 plasmid DNA (4,361 b/p; from BioLabs Inc., 1 μg/μL solution in 10 mM Tris-HCl (pH 8.0), and 1 mM EDTA buffer) was diluted to a concentration of 0.01 μg/μL. The solution containing cleavage agent, DNA (30 μM/bp) in 20 mM sodium phosphate buffer was incubated for 1 hour at 30° C. Samples were placed on ice at a distance of 20 cm from 200 W Hg—Xe lamp (Spectra-Physics, Laser & Photonics Oriel Instruments with long pass filter with 324 nm cut-off wavelength). Electrophoretic Analysis. The gel electrophoresis was carried out in 1×TBE buffer at 80 V using Miligel FisherBiotech Horizontal Electrophoresis System. All gels were run on 1% agarose slab gels. Before loading, the DNA samples were mixed with 0.33 volume of tracking dye containing bromophenol blue (0.25%) and glycerol (30%) in water. After staining in ethidium bromide solution (2 μg/ml) for 1 hour, the gel was washed with water and pictures were taken with Polaroid 3000ISO type 667 film. The relative quantities of the supercoiled, nicked, and linear DNA were calculated by integrating the “area” of each spot by the image analyzer software Total/Lab (Nonlinear Dynamics Ltd., UK). The amount of supercoiled DNA was multiplied by factor of 1.4 to account for reduced ethidium bromide intercalation into supercoiled DNA. pH titration by ^1H-NMR. pH* of compound 8 (3 mM) solution in D2O containing 0.05 wt % 3-(trimethylsilyl)propionic-2,2,3,3-d4 acid, sodium salt (TSP-d4) was adjusted with 10 wt % DCI and NaOD in D2O at 25° C. under argon purged condition. Spectrometric determinations of pKa. pH of 10 μM of compound solution in H2O was adjusted with 10, 100 mM HCl (aq) and NaOH (aq) solution under argon purged condition. Excitation wavelength was 330 nm and polymethacrylate fluorimeter cuvettes were used. Absorbance and fluorescence titration with DNA. The concentrations of calf thymus DNA stock solution was determined spectophotometrically using the following molar absorptovity values: 1.32×10^4 M^−1 cm^−1 (per base pair) at 260 nm. All experiments were done in 20 mM sodium phosphate buffer at 25° C. and polymethacrylate fluorimeter cuvettes were used. The same amount of DNA was added to both sample and reference cuvettes during UV/Vis titration. Determination of excited state lifetimes. The concentration of compound solution was 10 μM in 20 mM sodium phosphate buffer. The photoluminescence lifetime measurements were conducted by exciting the samples with the output of a Nd:VO—4 (Spectra-Physics Vanguard, 2 W, 532 nm, 76 MHz, 10 ps) pumped R6G dye laser (Coherent 702-1). The output of the dye laser (600 nm, Rhodamine 6G) was cavity dumped at 1.9 MHz and frequency doubled using a BBO crystal to excite the fluorophore (the excitation wavelength used was 290 nm). Samples were excited with <1 mW power and the emission was collected at right angles onto a Chromex S3 500 is 0.5 m imaging monochromator with a 50 g/mm grating and 0.5 nm resolution. Output of the monochromator is focused into a Hamamatsu C5680 streak camera operating at a 20 ns window for the fluorophore. Intensity analysis was carried out by integrating the spectral profile in time on the streak camera. Lifetime analysis over 6-7 lifetimes of the fluorophore was conducted by binning the photoluminescence intensity collected on the streak camera over a 20 nm spectral window at the centroid value of the emission of the fluorophore. Ethidium bromide displacement. […]

SMILES: NCCCC[C@H](N)C(=O)O [Lysine]
- pKa1 [1]: 8.95^b
- pKa2 [1]: 10.53^b

SMILES: C[C@H](N)C(=O)Nc1ccc(C#Cc2c(F)c(F)nc(F)c2F)cc1.Cl [Compound 6, (S)-2-Amino-propanoic acid [4-(2,3,5,6-tetrafluoro-pyridin-4-ylethynyl)-phenyl]-amide hydrochloride]
- pKa1 [2]: 7.6
- pKa1 [3]: 7.4
- ds-cleavage (pBR322 plasmid DNA): do not produce any ds-cleavage

SMILES: Cl.NCCCCCC(=O)Nc1ccc(C#Cc2c(F)c(F)nc(F)c2F)cc1 [Compound 7, 6-Aminohexanoic acid [4-(2,3,5,6-tetrafluoro-pyridin-4-ylethynyl)-phenyl]-amide Hydrochloride]
- pKa1 [2]: 10.8
- pKa for the ε-ammonium group lower by absorption than derived from the fluorescence changes ([3]; absorption vs fluorescence): > 1 pKa units
- pKa1 [3]: 9.4
- ds-cleavage (pBR322 plasmid DNA): do not produce any ds-cleavage
